Source: patent US11253567B2, “Citrus seed extract-containing composition, food, drug, and method for producing citrus seed extract-containing composition” (Kikkoman Corporation, priority 2014, dated 2022)

What was measured:
KKAy mice [1] = assay: Rearing experiment of KKAy mice: HbA1c level; type: in vivo; settings: Experiment 5, FIG. 12; 0.035 mass % in AIN-93G feed; pair feeding
Procedure: (§1) KKAy mice at 3 weeks of age were purchased from CLEA Japan, Inc. as diabetes onset mode mice, and experimentally reared after preliminary rearing for 7 days. Herein, the conditions of rearing the mice were as follows. […]
(§2) AIN-93G was used for base experimental feed. […]
Note, the Yuzu seed extract used in Experiment 1 was prepared by heat-drying the Yuzu seeds at 100° C. for 720 min, subsequently grinding the dried Yuzu seeds so that the particle size (i.e., diameter) became about 1 mm or less, and performing extraction at an ambient temperature for 10 min using 10-fold volume of 100% ethanol to the ground Yuzu seeds. […]
(§3) After initiating the rearing experiment, blood was collected through a tail vain at the time from 9 am to 11 am at a day after the predetermined days passed. Then, the collected blood was analyzed by blood-glucose analyzers (HORIBA, Ltd. Antsence III and Bayer DCA2000) to measure a blood-glucose level and an HbA1c level. The measured blood-glucose and HbA1c levels were processed to calculate the mean value of each group.
Note, all the HbA1c levels thus measured and calculated in the experiment are represented by the JDS values. […]

KKAy mice [2] = assay: Rearing experiment of KKAy mice: blood-glucose level; type: in vivo; settings: Experiment 5, FIG. 11; 0.035 mass % in AIN-93G feed; pair feeding; day 28
Procedure: as §1, §2
Note, the Yuzu seed extract used in Experiment 1 was prepared by heat-drying the Yuzu seeds at 100° C. for 720 min, subsequently grinding the dried Yuzu seeds so that the particle size (i.e., diameter) became about 1 mm or less, and performing extraction at an ambient temperature for 10 min using 10-fold volume of 100% ethanol to the ground Yuzu seeds.
In each of a control group (i.e., administered with AIN-93G alone including no other materials), a Yuzu seed extract (1% mass %) added group, a pioglitazone (0.03 mass %) added group, 10 mice were preliminarily reared for 7 days, and subsequently reared with the experimental feed totally for 28 days.
as §3, with “group. […]” for “group.”

CC1(C)OC(=O)C=C[C@]2(C)[C@H]3CC[C@@]4(C)[C@H](c5ccoc5)OC(=O)[C@H]5O[C@]54[C@]3(C)C(=O)C[C@@H]12 [obacunone, Obacunone]
HbA1c levels compared to control group (KKAy mice [1]): lower than those of the control group | blood-glucose level lower than that of the control group (difference) (KKAy mice [2]): about 50 mg/dl
